Experimental data: patent US12497405B2, “Bicyclic heterocycle compounds methods of use thereof for the treatment of herpes viruses” (Merck Sharp & Dohme LLC, priority 2019, dated 2025)

Experiments:
HSV1 = test: Viral qPCR assay, HSV1; assay type: cell-based; details: Human alphaherpesvirus 1, 72 h, infected cells, viral genome copies by qPCR normalized to PPIA, read-out: HSV1 Cell EC50
Procedure, shortened: (§1)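 MRC5, Vero or MeWo cells mixed with virus and added to 10-point 3-fold compound dilutions, ~72 h at 37 °C. Lysates proteinase K-treated, viral gene and PPIA copies measured by TaqMan qPCR against plasmid standard curves; normalized viral copies scaled between uninfected and DMSO-infected controls, EC50 from 4-parameter fit.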

[1] = target: Human cytomegalovirus DNA polymerase (Human cytomegalovirus (strain AD169) (HHV-5) (Human herpesvirus 5), UniProt P08546); test: CMV polymerase assay (AlphaLISA); assay type: biochemical; details: HCMV polymerase 0.2 nM, 30 min pre-incubation, 60 minute at 37° C.
Procedure, shortened: (§2)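 Baculovirus/SF21-expressed polymerase (HCMV 0.2 nM, VZV 0.4 nM final) was preincubated 30 min at room temperature with compound in HEPES pH 7.5/Mg buffer. Reactions with 1.6 nM DIG-primer/template, low nM dNTPs and biotin-dUTP ran 60 min at 37 °C. AlphaLISA readout, normalized to controls, 4-parameter IC50.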

HSV2 = test: Viral qPCR assay, HSV2; assay type: cell-based; details: Human alphaherpesvirus 2, 72 h, infected cells, viral genome copies by qPCR normalized to PPIA, read-out: HSV2 Cell EC50
Procedure, shortened: as §1

[2] = target: varicella zoster virus DNA polymerase (Varicella-zoster virus (strain Dumas) (HHV-3) (Human herpesvirus 3), UniProt P09252); test: VZV polymerase assay (AlphaLISA); assay type: biochemical; details: VZV polymerase 0.4 nM, 30 min pre-incubation, 60 minute at 37° C.
Procedure, shortened: as §2

CMV = test: Viral qPCR assay, CMV; assay type: cell-based; details: Human betaherpesvirus 5, 72 h, infected cells, viral genome copies by qPCR normalized to PPIA, read-out: CMV Cell EC50
Procedure, shortened: as §1

**Q.** Which EC50 (HSV1) does the source give for `Cc1nc2cc(-c3cn(C(F)F)cn3)c(O[C@H]3CCN4C(=O)OC[C@@H]4C3)cc2c(=O)n1Cc1ccc(C#N)cc1` [Example 80] here?
**A.** 157 nM

**Q.** And the IC50 [1]?
**A.** 7.6 nM

**Q.** And the EC50 (HSV2)?
**A.** 227 nM

**Q.** What about the IC50 [2] of the same molecule?
**A.** 5.6 nM

**Q.** And the EC50 (CMV)?
**A.** 124 nM

**Q.** Which results are given for `Cc1nc2cc(-c3nc4n(n3)CCN(C)C4)c(O[C@H]3CCN4C(=O)OC[C@@H]4C3)cc2c(=O)n1Cc1ccc(Cl)cc1` [Example 81]?
**A.** EC50 (HSV1): 364 nM; IC50 [1]: 15 nM; EC50 (HSV2): 307 nM; IC50 [2]: 27 nM; EC50 (CMV): 265 nM

**Q.** How did the EC50 (HSV1) turn out when `Cc1nc2cc(-c3cn(C(F)F)cn3)c(O[C@H]3CCN4C(=O)OC[C@@H]4C3)cc2c(=O)n1Cc1ccc(Cl)cc1` [Example 82] was run?
**A.** 63 nM

**Q.** And the IC50 [1]?
**A.** 5.5 nM

**Q.** And the EC50 (HSV2)?
**A.** 45 nM

**Q.** And the IC50 [2]?
**A.** 7.1 nM

**Q.** What about the EC50 (CMV) of the same molecule?
**A.** 52 nM

**Q.** For `Cc1nc2cc(-c3cc4n(n3)CCNC4)c(O[C@H]3CCN4C(=O)OC[C@@H]4C3)cc2c(=O)n1Cc1ccc(Cl)cc1` [Example 84], which EC50 (HSV1) is on record?
**A.** 113 nM

**Q.** What about the IC50 [1] of the same molecule?
**A.** 0.44 nM

**Q.** What about the EC50 (HSV2) of the same molecule?
**A.** 102 nM

**Q.** And the IC50 [2]?
**A.** 0.44 nM

**Q.** What about the EC50 (CMV) of the same molecule?
**A.** 177 nM

**Q.** What does the source list for `Cc1nc2cc(-c3cc4n(n3)CCN(C)C4)c(O[C@H]3CCN4C(=O)OC[C@@H]4C3)cc2c(=O)n1Cc1ccc(Cl)cc1` [Example 86]?
**A.** EC50 (HSV1): 58 nM; IC50 [1]: 0.44 nM; EC50 (HSV2): 41 nM; IC50 [2]: 0.44 nM; EC50 (CMV): 68 nM

**Q.** Which results are given for `Cc1nc2cc(-c3cn4c(n3)CN(C)CC4)c(O[C@H]3CCN4C(=O)OC[C@@H]4C3)cc2c(=O)n1Cc1ccc(C#N)cc1` [Example 87]?
**A.** EC50 (HSV1): 313 nM; IC50 [1]: 0.44 nM; EC50 (HSV2): 275 nM; IC50 [2]: 0.8 nM; EC50 (CMV): 198 nM

**Q.** `COc1cnc(-c2cc3nc(C)n(Cc4ccc(Cl)cc4)c(=O)c3cc2O[C@H]2CCN3C(=O)OC[C@@H]3C2)nc1` [Example 88] was tested. Which EC50 (HSV1) did it give?
**A.** 543 nM

**Q.** What about the IC50 [1] of the same molecule?
**A.** 28 nM

**Q.** And the EC50 (HSV2)?
**A.** 225 nM

**Q.** And the IC50 [2]?
**A.** 25 nM

**Q.** And the EC50 (CMV)?
**A.** 718 nM

**Q.** `Cc1ncc(-c2cc3nc(C)n(Cc4ccc(Cl)cc4)c(=O)c3cc2O[C@H]2CCN3C(=O)OC[C@@H]3C2)cn1` [Example 90] was tested. Which EC50 (HSV1) did it give?
**A.** 214 nM

**Q.** What about the IC50 [1] of the same molecule?
**A.** 18 nM

**Q.** What about the EC50 (HSV2) of the same molecule?
**A.** 115 nM

**Q.** What about the IC50 [2] of the same molecule?
**A.** 16 nM

**Q.** And the EC50 (CMV)?
**A.** 241 nM

**Q.** For `Cc1nc2cc(-c3cnc(C4CC4)nc3)c(O[C@H]3CCN4C(=O)OC[C@@H]4C3)cc2c(=O)n1Cc1ccc(Cl)cc1` [Example 95], which EC50 (HSV1) is on record?
**A.** 301 nM

**Q.** What about the IC50 [1] of the same molecule?
**A.** 18 nM

**Q.** What about the EC50 (HSV2) of the same molecule?
**A.** 182 nM

**Q.** What about the IC50 [2] of the same molecule?
**A.** 19 nM

**Q.** What about the EC50 (CMV) of the same molecule?
**A.** 366 nM

**Q.** `Cc1nc2cc(-c3cnc(N4CCOCC4)nc3)c(O[C@H]3CCN4C(=O)OC[C@@H]4C3)cc2c(=O)n1Cc1ccc(Cl)cc1` [Example 97] was tested. Which EC50 (HSV1) did it give?
**A.** 163 nM

**Q.** And the IC50 [1]?
**A.** 14 nM

**Q.** What about the EC50 (HSV2) of the same molecule?
**A.** 96 nM

**Q.** And the IC50 [2]?
**A.** 15 nM

**Q.** What about the EC50 (CMV) of the same molecule?
**A.** 198 nM

**Q.** `CCOc1ncc(-c2cc3nc(C)n(Cc4ccc(Cl)cc4)c(=O)c3cc2O[C@H]2CCN3C(=O)OC[C@@H]3C2)cn1` [Example 98] was tested. Which EC50 (HSV1) did it give?
**A.** 256 nM

**Q.** And the IC50 [1]?
**A.** 16 nM

**Q.** And the EC50 (HSV2)?
**A.** 185 nM

**Q.** And the IC50 [2]?
**A.** 15 nM

**Q.** And the EC50 (CMV)?
**A.** 284 nM

**Q.** What does the source list for `Cc1nc2cc(-c3cc4n(n3)CCN(CC(F)(F)F)C4)c(O[C@H]3CCN4C(=O)OC[C@@H]4C3)cc2c(=O)n1Cc1ccc(Cl)cc1` [Example 147]?
**A.** EC50 (HSV1): 274 nM; IC50 [1]: 7 nM; EC50 (HSV2): 96 nM; IC50 [2]: 12 nM; EC50 (CMV): 229 nM
